In US12421249B2, “Inhibitors of APOL1 and methods of using same” (Vertex Pharmaceuticals Incorporated, priority 2020, dated 2025):
pIC50: −log10 of the molar value.

Key:
APOL1 G1 = target: T1, APOL1 G1 (Homo sapiens, UniProt O14791, I384M/S342G); test: Trypanosoma brucei brucei Lysis Assay Using APOL1 Recombinant Protein (AlamarBlue viability readout); type: cell-based; conditions: Trypanosome Assay; for pIC50: IP50 = IC50 for cell proliferation, read-out: Trypanosome Assay IP50; for Emax: read-out: Trypanosome Assay Max Activity (%)
T1 sequence (O14791 28-398 S342G/I384M): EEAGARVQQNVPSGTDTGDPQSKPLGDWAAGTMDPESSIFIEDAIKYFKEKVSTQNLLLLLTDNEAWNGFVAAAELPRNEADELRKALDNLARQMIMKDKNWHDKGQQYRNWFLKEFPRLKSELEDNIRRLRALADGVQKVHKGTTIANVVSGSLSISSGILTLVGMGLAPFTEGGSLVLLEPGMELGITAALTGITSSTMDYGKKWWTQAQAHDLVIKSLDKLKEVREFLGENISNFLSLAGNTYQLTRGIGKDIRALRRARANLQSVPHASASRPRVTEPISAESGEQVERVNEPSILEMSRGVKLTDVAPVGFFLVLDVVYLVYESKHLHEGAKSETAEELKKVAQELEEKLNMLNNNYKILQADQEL
From the text: Trypanosoma brucei brucei is a blood stream parasite to which human, gorillas, and baboons are immune due to the presence of the APOL1 protein in their HDL particles. The protein is uptaken by the parasite via the TbHpHb receptor located in its flagellar pocket and is bonded by the Hpr protein contained in the HDL particles which triggers the receptor endocytosis by the parasite.
Following endocytosis, the formed vesicle containing the HDL particle matures from early to late endosome, and subsequently to lysosome. The concomitant pH change in the lumen of the vesicle triggers the insertion of the APOL1 protein into the membrane of the late endosome/lysosome and hereby triggers lysosomal membrane permeabilization and as a further downstream event, trypanosome lysis. Trypanosoma brucei brucei is sensitive to lysis by all three APOL1 variants (G0, G1, and G2).
The Trypanosoma brucei brucei lysis assay is a lysis assay of the parasite using recombinant APOL1 protein variant followed by a fluorescent detection method of viability by the addition of AlamarBlue reagent to the assay well, a general metabolic redox indicator (AlamarBlue assay).
Briefly, the AlamarBlue active compound, resazurin, a blue, water soluble, non-toxic and cell permeable molecule, which can be followed by absorbance, is reduced by various metabolic pathways into resorufin, a red compound which can be followed by either absorbance or fluorescence. The assay allows the calculation of the percent viability (percent of living Trypanosomes remaining in each well) at the end of a lysis relative to the untreated condition by interpolation of fluorescent values (FLU) on a standard curve with a known amount of seeded trypanosome/well.
Trypanosoma brucei brucei (ATCC, Cat. No. PRA-382)
• Lister 427 VSG 221 bloodstream form.
Equipment • E1-Clip Tip pipette 12 channel adjustable 2-125 μL, Cat. No. 4672070BT • ThermoFisher MultiDrop 384, Cat. No. 5840300 • Multidrop • Agilent Bravo, Cat. No. G5409A • Bravo • SpectraMax M5 Assay Ready Plates (ARPs) • ARPs comes in two formats: • […] final top concentration with a 2.5 fold dilution down. • […] final top concentration with a 3 fold dilution down. • Both have a 10 point Dose response. • 0.1% DMSO final in the Black Assay Plate. • Compounds are diluted 1000 fold in the Black Assay Plate. • Each plate is designed for 14 compounds in duplicate. • In the final Black Assay Plate: • Column 1: Media only (no APOL1) (100% viable) • Column 2-23: 0.05 μg/mL APOL1 (˜EC90) (10% viable with APOL1) • Column 24: 0.1 μg/mL APOL1 (EC100) (Approx. […] Step 2, Day 4 • Centrifuge at 800×g for 5 minutes at room temperature. • Resuspend in 1 mL media. • Make a 1:25 fold dilution (10 μL/240 μL media). • Count on a hemocytometer (after adding parasites). • Let sit for 1-2 minutes for the parasites to settle. • Count should be approximately 100 viable motile parasites/16 grid or approximately 25×10^6 parasites/flask. • Passage the parasites by adding 1×10^6 parasites/T75 flask in 20 mL media. • Passage the parasites by adding 2.33×10^6 parasites/T175 flask in 46.6 mL media. • For every T75 flask should make enough for approximately 1.5×384 well assay plates. • For every T175 flask should make enough for approximately 3.8×384 well assay plates. Step 3, Day 6 • Centrifuge at 800×g for 5 minutes. • Resuspend in 3 mL assay media (No phenol red, no FBS) per 75 starting flask. • Resuspend in 7 mL assay media (No phenol red, no FBS) per 175 flask • Make a 1:25 fold dilution. • Count by hemocytometer. • Every T75 flask set up should have approximately 75×10^6 parasites/flask (verify doubling time=8.7 hours±1 hour). • Every T175 flask set up should have approximately 175×10^6 parasites/flask (verify doubling time=8.7 hours±1 hour). • Require 46×10^6 parasites per 384 well plate (at 120,000 parasites per well). […]

APOL1 = target: T2, APOL1 (Homo sapiens, UniProt O14791); test: Multi-Tox Assay (MultiTox-Fluor Multiplex Cytotoxicity Assay in tet-inducible APOL1 T-REx-HEK293 cells; Table 46 does not say which APOL1 variant G0/G1/G2); type: cell-based; conditions: APOL1 variant not given; for pIC50: IP50 = IC50 for cell proliferation
T2 sequence (O14791 1-398 S342G/I384M): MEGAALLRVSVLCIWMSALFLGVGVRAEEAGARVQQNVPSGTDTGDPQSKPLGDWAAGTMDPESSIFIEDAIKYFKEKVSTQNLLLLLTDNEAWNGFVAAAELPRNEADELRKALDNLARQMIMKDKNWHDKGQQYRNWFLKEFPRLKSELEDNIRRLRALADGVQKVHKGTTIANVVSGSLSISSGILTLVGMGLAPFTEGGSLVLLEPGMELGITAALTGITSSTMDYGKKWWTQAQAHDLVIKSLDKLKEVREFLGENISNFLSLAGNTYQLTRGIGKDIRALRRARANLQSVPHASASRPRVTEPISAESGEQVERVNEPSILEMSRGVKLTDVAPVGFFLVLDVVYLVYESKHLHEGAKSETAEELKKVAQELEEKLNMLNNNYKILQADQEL

| SMILES | pIC50 (APOL1 G1) | Emax (APOL1 G1) [%] | IC90 (APOL1) [µM] | Multi-Tox Assay Max Activity (%) (APOL1) | pIC50 (APOL1) |
| --- | --- | --- | --- | --- | --- |
| C[C@H]1C[C@@]2(C[C@@H](c3ccc4c(c3)NC(=O)CO4)N1)OCCc1cc(Cl)sc12 (racemic) [Compound 54] | > 7.30 | 102 | < 0.05 | 100.0 | > 7.30 |
| CC1CC2(CC(c3cccc(C#N)c3)N1)OCCc1cc(Cl)sc12 (stereo not shown) [Compound 24] | > 7.30 | 107 |  | 100.0 | > 7.30 |
| CC1CC2(CC(c3cn[nH]c3)N1)OCCc1cc(Cl)sc12 (stereo not shown) [Compound 31] | > 7.30 | 123 | < 0.05 | 100.0 | > 7.30 |
| C[C@H]1C[C@@]2(C[C@@H](c3cnn4ccccc34)N1)OCCc1cc(Cl)sc12 (racemic) [Compound 117] | > 7.30 | 101 |  | 99.0 | > 7.30 |
| Cc1cc([C@@H]2C[C@]3(C[C@H](C)N2)OCCc2cc(Cl)sc23)nc(N(C)C)n1 (racemic) [Compound 138] | 6.30 to 7.30 | 104 |  | 98.0 | 6.30 to 7.30 |
| C[C@H]1C[C@@]2(C[C@@H](C3CC3)N1)OCC(O)c1cc(Cl)sc12 (stereo partly drawn) [Compound 220, (2S,6S)-2-chloro-2′-cyclopropyl-6′-methyl-spiro[4,5-dihydrothieno[2,3-c]pyran-7,4′-piperidine]-4-ol] | > 7.30 | 110 |  |  | > 7.30 |
| C[C@H]1C[C@@]2(C[C@@H](c3cn(C)nn3)N1)OC[C@H](O)c1cc(Cl)sc12 [Compound 177, (2′S,4R,6′S,7S)-2-chloro-2′-methyl-6′-(1-methyltriazol-4-yl)spiro[4,5-dihydrothieno[2,3-c]pyran-7,4′-piperidine]-4-ol] | 6.30 to 7.30 | 107 |  |  |  |
| Cc1noc2cc([C@@H]3C[C@]4(C[C@H](C)N3)OCCc3cc(Cl)sc34)ccc12 (racemic) [Compound 25] | > 7.30 | 109 |  | 100.0 | > 7.30 |
| C[C@H]1C[C@@]2(C[C@@H](c3cccc(C#N)n3)N1)OCCc1cc(Cl)sc12 (racemic) [Compound 53] | 6.30 to 7.30 | 106 |  | 99.3 | > 7.30 |
| C[C@H]1C[C@@]2(C[C@@H](c3cnn(CC(=O)N(C)C)c3)N1)OCCc1cc(Cl)sc12 [Compound 18, 2-[4-[(2S,6S)-2-chloro-6′-methyl-spiro[4,5-dihydrothieno[2,3-c]pyran-7,4′-piperidine]-2′-yl]pyrazol-1-yl]-N,N-dimethyl-acetamide] | 6.30 to 7.30 | 103 |  |  | > 7.30 |
| C[C@H]1C[C@@]2(C[C@@H](c3c[nH]nn3)N1)OCCc1cc(Cl)sc12 (racemic) [Compound 72] | > 7.30 | 118 |  |  | > 7.30 |
| Cc1nn(C)c2ncc(C3CC4(CC(C)N3)OCCc3cc(Cl)sc34)cc12 (stereo not shown) [Compound 42] | > 7.30 | 110 |  |  | > 7.30 |
| Cc1cc2c(s1)C1(C[C@@H](c3cn(C)nn3)N[C@@H](C)C1)OCC2 (stereo in doubt) [Compound 3] | > 7.30 | 107 |  |  | > 7.30 |
| CCC(O)Cn1cc([C@@H]2C[C@]3(C[C@H](C)N2)OCCc2cc(Cl)sc23)nn1 (mixture of isomers) [Compound 111] | 6.30 to 7.30 | 98.5 |  | 99.3 | > 7.30 |
| Cc1cnc([C@@H]2C[C@]3(C[C@H](C)N2)OCCc2cc(Cl)sc23)o1 (racemic) [Compound 134] | 6.30 to 7.30 | 96.7 |  | 99.2 | 6.30 to 7.30 |
| C[C@H]1CC2(CC(c3cnn(C)c3)N1)OCC(O)c1cc(Cl)sc12 (single isomer, unassigned) [Compound 175] | > 7.30 | 106 | < 0.05 | 100.0 | > 7.30 |
| C[C@H]1C[C@@]2(C[C@@H](c3cnc(-c4cnn(C)c4)nc3)N1)OCCc1cc(Cl)sc12 (stereo in doubt) [Compound 61] | > 7.30 | 105 |  |  | > 7.30 |
| C[C@H]1C[C@@]2(C[C@@H](c3ncc(C(F)(F)F)[nH]3)N1)OCCc1cc(Cl)sc12 (racemic) [Compound 165] | < 6.30 | 61 |  | 92.0 | < 6.30 |
| C[C@H]1C[C@@]2(C[C@@H](c3cnc(N4CCN(C)CC4)nc3)N1)OCCc1cc(Cl)sc12 (racemic) [Compound 129] | > 7.30 | 88 |  | 100.0 | 6.30 to 7.30 |
| COc1ccc([C@@H]2C[C@]3(C[C@H](C)N2)OCCc2cc(Cl)sc23)cc1C#N (racemic) [Compound 62] | > 7.30 | 95 |  |  | > 7.30 |
| C[C@H]1C[C@@]2(C[C@@H](c3cccc(-c4cn[nH]c4)c3)N1)OCCc1cc(Cl)sc12 (racemic) [Compound 148] | 6.30 to 7.30 | 92.5 |  | 97.0 | 6.30 to 7.30 |
| C[C@H]1C[C@@]2(C[C@@H](c3ccccc3)N1)OCCc1cc(Cl)sc12 (racemic) [Compound 81] | > 7.30 |  |  |  | > 7.30 |
| Cc1cc(C2CC3(CC(C)N2)OCCc2cc(Cl)sc23)ncn1 (stereo not shown) [Compound 43] | > 7.30 | 103 |  | 100.0 | > 7.30 |
| Cc1nn(CCO)cc1[C@@H]1C[C@]2(C[C@H](C)N1)OCCc1cc(Cl)sc12 (racemic) [Compound 158] | < 6.30 | 75.5 |  |  | < 6.30 |
| CC1CC2(CC(C3CC3(F)F)N1)OCCc1cc(Cl)sc12 (single isomer, unassigned) [Compound 212] | > 7.30 | 101 |  |  | > 7.30 |
| COc1ccc([C@@H]2C[C@]3(C[C@H](C)N2)OCCc2cc(Cl)sc23)c(F)c1 (racemic) [Compound 44] | > 7.30 | 106 |  | 99.5 | > 7.30 |
